From patent US7868204B2, “Inhibitors of histone deacetylase” (MethylGene Inc., priority 2001, dated 2011) come the findings set out here.

Assay [1] addresses T1, cloned recombinant human HDAC-1 (Homo sapiens, UniProt Q13547).
T1 construct: made in house; host or cells: Baculovirus insect cell expression system
The assay can be described thus: Human HDAC-1 enzyme inhibition, Assay 1 ([3H]-acetylated histone substrate, scintillation counting). In kind it is biochemical. Summed up: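 Recombinant human HDAC-1 from baculovirus-infected insect cells, preincubated with compound 30 min at 4° C. before reaction. Released [3H]-acetic acid extracted with ethyl acetate and counted by scintillation. IC50 taken from dose-response curves as concentration giving half-maximal inhibition.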

Assay [2] has as its system HCT116 cells. The assay can be described thus: MTT assay. In kind it is cell-based. As to conditions: Homo sapiens, HCT116 cells, 72 hours. The procedure, abridged: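 Cells plated one day before dosing, then exposed to compound 72 h at 37 °C, 5% CO2. MTT at 0.5 mg/ml final for 4 h, solubilized in DMF/SDS buffer pH 4.7; OD converted to cell number from a standard growth curve.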

The test system of assay [3] is acetylated histone H-4 in T24 human bladder cancer cells. Put plainly: Histone H4 acetylation in whole cells by immunoblots. The format is cell-based. Particulars: 16 h. Summed up: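 T24 cells were treated with HDAC inhibitors for 16 h; […] total histone protein was resolved by SDS/PAGE and immunoblotted with polyclonal anti-acetylated H4 antibody. ECL detection, with signal quantified by densitometry.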

[4] abbreviates: Table 5F, read-out: Human HDAC-1 IC50.
The mark [5] stands for this setting: T-24, Table 5F, read-out: H4 Ac (T24) EC50.
The mark [6] stands for this setting: Table 5E, read-out: Human HDAC-1 IC50.
Where [7] appears, read: T-24, Table 5E, read-out: H4 Ac (T24) EC50.

Like-named read-outs stand apart in the source and are kept apart here. Where only a bound is given, the exact number is not on record here.

T1 sequence (Q13547 whole entry): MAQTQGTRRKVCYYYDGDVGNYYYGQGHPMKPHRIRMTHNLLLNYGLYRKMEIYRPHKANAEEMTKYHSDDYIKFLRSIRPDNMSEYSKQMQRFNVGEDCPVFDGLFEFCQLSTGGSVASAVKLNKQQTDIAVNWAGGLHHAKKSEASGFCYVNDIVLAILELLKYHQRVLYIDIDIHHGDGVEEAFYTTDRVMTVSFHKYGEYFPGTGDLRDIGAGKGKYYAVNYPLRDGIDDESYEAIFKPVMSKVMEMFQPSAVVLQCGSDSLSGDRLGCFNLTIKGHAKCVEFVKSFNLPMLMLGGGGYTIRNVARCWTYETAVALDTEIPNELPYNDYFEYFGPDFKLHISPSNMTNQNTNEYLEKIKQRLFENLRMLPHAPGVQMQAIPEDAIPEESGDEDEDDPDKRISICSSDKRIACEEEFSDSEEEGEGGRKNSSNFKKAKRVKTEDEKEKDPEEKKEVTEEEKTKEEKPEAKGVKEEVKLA

For `Nc1ccccc1NC(=O)c1ccc(CSc2ccccn2)cc1` [Cpd 381], the IC50 was found to be 2000 nM in assay [1] (setting [4]) and 1000 nM in assay [2] (HCT-116, 72 h, Table 5F). Further, in assay [3] (setting [5]), the EC50 amounted to 2000 nM.
Consider `COc1cc(C#N)c(NCc2ccc(C(=O)Nc3ccccc3N)cc2)cc1OC` [Cpd 404], for which the IC50 in assay [1] (setting [4]) was 3000 nM; in assay [2] (HCT-116, 72 h, Table 5F) it was 600 nM. The EC50 in assay [3] (setting [5]) came to 5000 nM.
With `COc1cc(NCc2ccc(C(=O)Nc3ccccc3N)cc2)nc(OC)n1` [Cpd 392, N-(2-Amino-phenyl)-4-[(2,6-dimethoxy-pyrimidin-4-ylamino)-methyl]-benzamide], the IC50 in assay [1] (setting [4]) turned out to be 4000 nM; in assay [2] (HCT-116, 72 h, Table 5F) it was 1000 nM. Besides, the EC50 in assay [3] (setting [5]) is 1000 nM.
For the molecule `Nc1ccccc1NC(=O)c1ccc(CSc2nc3ccc(NCc4ccccn4)cc3s2)cc1` [Cpd 326, N-(2-Amino-phenyl)-4-{6-[(pyridin-2-ylmethyl)-amino]-benzothiazol-2-ylsulfanylmethyl}-benzamide], the IC50 was 1000 nM in assay [1] (setting [4]) and 1000 nM in assay [2] (HCT-116, 72 h, Table 5F). Besides, the EC50 in assay [3] (setting [5]) was determined as 3000 nM.
On to `CN(C)CCn1c(=O)n(Cc2ccc(C(=O)Nc3ccccc3N)cc2)c(=O)c2ccccc21` [Cpd 340, N-(2-Amino-phenyl)-4-[1-(2-dimethylamino-ethyl)-2,4-dioxo-1,4-dihydro-2H-quinazolin-3-ylmethyl]-benzamide], for which the IC50 in assay [1] (setting [4]) was determined as 2000 nM; in assay [2] (HCT-116, 72 h, Table 5F) it was 1000 nM. Moreover, in assay [3] (setting [5]), the EC50 worked out at 1000 nM.
For `Nc1ccccc1NC(=O)c1ccc(CNc2cccc(OC(F)(F)F)c2)cc1` [Cpd 423, N-(2-Amino-phenyl)-4-[(3-trifluoromethoxy-phenylamino)-methyl]-benzamide], the IC50 in assay [1] (setting [4]) turned out to be 500 nM; in assay [2] (HCT-116, 72 h, Table 5F), 1000 nM. For the same molecule, in assay [3] (setting [5]), the EC50 amounted to 3000 nM.
For `Nc1ccccc1NC(=O)c1ccc(Cc2coc3ccccc3c2=O)cc1` [compound 262, N-(2-Amino-phenyl)-4-(4-oxo-4H-chromen-3-ylmethyl)-benzamide], in that order: 500 nM, 300 nM and 1000 nM.
For `CC(=O)Nc1sc(Cc2ccc(C(=O)Nc3ccccc3N)cc2)c(C)c1C#N` [compound 281, N-(2-Amino-phenyl)-4-(5-acetylamino-4-cyano-3-methyl-thiophen-2-ylmethyl)-benzamide], in that order: 500 nM, 600 nM and 1000 nM.
Turning to `COc1ccc(-c2cc(Cl)nc(NCc3ccc(C(=O)Nc4ccccc4N)cc3)n2)cc1OC` [Cpd 439], the IC50 in assay [1] (setting [4]) was determined as 3000 nM; in assay [2] (HCT-116, 72 h, Table 5F), 400 nM. For the same molecule, in assay [3] (setting [5]), the EC50 came out at 1000 nM.
Consider `Nc1nc(NC2Cc3ccccc3C2)nc(OCc2ccc(C(=O)Nc3ccccc3N)cc2)n1` [Cpd 207], for which the half-maximal inhibitory concentration (IC50) in assay [1] (Table 5b, read-out: Human HDAC-1 IC50) turned out to be 400 nM; in assay [2] (HCT-116, 72 h, Table 5b) it was 600 nM. Also, in assay [3] (T-24, Table 5b, read-out: H4Ac (T24) EC50), the EC50 was 2000 nM.
On to `Nc1ccccc1NC(=O)c1ccc(CNc2cccc(F)n2)cc1` [Cpd 349], for which the IC50 in assay [1] (setting [4]) came out at 13000 nM; in assay [2] (HCT-116, 72 h, Table 5F) it was 1000 nM. For the same molecule, the EC50 in assay [3] (setting [5]) is 3000 nM.
On to `Nc1ccccc1NC(=O)c1ccc(CC2Cc3ccccc3C2=O)cc1` (stereo not drawn) [compound 272, N-(2-Amino-phenyl)-4-(1-oxo-indan-2-ylmethyl)-benzamide], for which the IC50 in assay [1] (setting [4]) amounted to 2000 nM; in assay [2] (HCT-116, 72 h, Table 5F) it was 600 nM. Besides, the EC50 in assay [3] (setting [5]) was < 1000 nM.
For the molecule `Nc1ccccc1NC(=O)c1ccc(Cn2c(=O)[nH]c3ccsc3c2=O)cc1` [Cpd 343, N-(2-Amino-phenyl)-4-(2,4-dioxo-1,4-dihydro-2H-thieno[3,2-d]pyrimidin-3-ylmethyl)-benzamide], the IC50 in assay [1] (setting [4]) was found to be 500 nM; in assay [2] (HCT-116, 72 h, Table 5F), 300 nM. In assay [3] (setting [5]), the EC50 stood at 1000 nM.
For `COc1ccc(CNC2(C#Cc3ccc(C(=O)Nc4ccccc4N)cc3)CCCCC2)cc1` [Cpd 192] the same measures were 2000 nM, 1000 nM and 3000 nM.
For `Nc1ccccc1NC(=O)c1ccc(CNc2ccc(N3CCOCC3)cc2)cc1` [Cpd 402, N-(2-Amino-phenyl)-4-[(4-morpholin-4-yl-phenylamino)-methyl]-benzamide], the IC50 in assay [1] (setting [4]) worked out at 14000 nM; in assay [2] (HCT-116, 72 h, Table 5F), 400 nM. The EC50 in assay [3] (setting [5]) turned out to be 1000 nM.
Consider `CCCCn1cnc2c(NCc3ccc(C(=O)Nc4ccccc4N)cc3)nc(Cl)nc21` [Cpd 333, N-(2-Amino-phenyl)-4-[(9-butyl-2-chloro-9H-purin-6-ylamino)-methyl]-benzamide], for which the IC50 in assay [1] (setting [4]) stood at 2000 nM; in assay [2] (HCT-116, 72 h, Table 5F), 100 nM. Further, the EC50 in assay [3] (setting [5]) was 1000 nM.
On to `Nc1ccccc1NC(=O)c1ccc(CNc2cc(-c3ccccc3)[nH]n2)cc1` [Cpd 468, N-(2-Amino-phenyl)-4-[(5-phenyl-1H-pyrazol-3-ylamino)-methyl]-benzamide], for which the IC50 came to 2000 nM in assay [1] (setting [4]) and 8000 nM in assay [2] (HCT-116, 72 h, Table 5F). The EC50 in assay [3] (setting [5]) is < 1000 nM.
Take `COc1cc(N(Cc2ccc(/C=C/C(=O)Nc3ccccc3N)cc2)Cc2cc3ccccc3[nH]2)cc(OC)c1OC` [Cpd 499, N-(2-Amino-phenyl)-3-{4-([(1 H-indol-2-ylmethyl)-(3,4,5-trimethoxy-phenyl)-amino]-methyl}-phenyl)-acrylamide]: the IC50 was > 25000 nM in assay [1] (Table 5d, read-out: HDAC-1 IC50) and 2000 nM in assay [2] (HCT-116, Table 5d). Besides, the EC50 in assay [3] (T-24, Table 5d, read-out: H4Ac(T24) EC50) is > 25000 nM.
As to `Nc1ccccc1NC(=O)c1ccc(CSc2nc3ccc(NCCN4CCOCC4)cc3s2)cc1` [Cpd 128, N-(2-Amino-phenyl)-4-[6-(2-morpholin-4-yl-ethylamino)-benzothiazol-2-ylsulfanylmethyl]-benzamide], the IC50 in assay [1] (setting [6]) is 1000 nM; in assay [2] (HCT-116, 72 h, Table 5E) it was 300 nM. The EC50 in assay [3] (setting [7]) is 5000 nM.
With `Nc1ccccc1NC(=O)c1ccc(CSc2nnc(-c3ccccc3)o2)cc1` [Cpd 177], the IC50 was determined as 1000 nM in assay [1] (setting [6]) and 400 nM in assay [2] (HCT-116, 72 h, Table 5E). Also, the EC50 in assay [3] (setting [7]) is 1000 nM.
As for `Nc1ccccc1NC(=O)c1ccc(CSc2ccc3ccccc3n2)cc1` [Cpd 131, N-(2-Amino-phenyl)-4-(quinolin-2-ylsulfanylmethyl)-benzamide], the IC50 in assay [1] (setting [6]) stood at 300 nM; in assay [2] (HCT-116, 72 h, Table 5E) it was 900 nM. In addition, in assay [3] (setting [7]), the EC50 was determined as 2000 nM.
As to `COc1cc(NCc2ccc(C(=O)Nc3cscc3N)cc2)cc(OC)c1OC` [Cpd 574, N-(4-Amino-thiophen-3-yl)-4-[(3,4,5-trimethoxy-phenylamino)-methyl]-benzamide], the IC50 in assay [1] (setting [4]) is 13000 nM; in assay [2] (HCT-116, 72 h, Table 5F), 700 nM. In addition, the EC50 in assay [3] (setting [5]) amounted to 3000 nM.
For the molecule `COc1ccc2[nH]c(SCc3ccc4oc(C(=O)Nc5ccccc5N)cc4c3)nc2c1` [Cpd 591, 5-(5-Methoxy-1H-benzoimidazol-2-ylsulfanyl-methyl)-benzofuran-2-carboxylic acid (2-amino-phenyl)amide], the IC50 worked out at 4000 nM in assay [1] (setting [4]) and 300 nM in assay [2] (HCT-116, 72 h, Table 5F). For the same molecule, in assay [3] (setting [5]), the concentration for a half-maximal effect (EC50) was < 1000 nM.
Consider `Nc1cscc1NC(=O)c1ccc(CNc2nc3ccc(OCCN4CCOCC4)cc3s2)cc1` [Cpd 573, N-(4-Amino-thiophen-3-yl)-4-{[6-(2-morpholin-4-yl-ethoxy)-benzothiazol-2-ylamino]-methyl}-benzamide], for which the IC50 in assay [1] (setting [4]) came out at 7000 nM; in assay [2] (HCT-116, 72 h, Table 5F), 400 nM. Also, the EC50 in assay [3] (setting [5]) was 1000 nM.
With `Nc1nc(NCc2ccc(C(=O)Nc3ccccc3N)cc2)nc(NCc2ccccn2)n1` [Cpd 12], the IC50 in assay [1] (Table 5a, read-out: Human HDAC-1 IC50) was determined as 2000 nM; in assay [2] (HCT-116, 72 h, Table 5a), 2000 nM. Besides, the EC50 in assay [3] (T-24, Table 5a, read-out: H4Ac (T24) EC50) was 5000 nM.
For `Cc1onc2c1c(=O)n(Cc1ccc(C(=O)Nc3ccccc3N)cc1)c1cccc(Cl)c21` [Cpd 247], the IC50 in assay [1] (setting [4]) was 3000 nM; in assay [2] (HCT-116, 72 h, Table 5F), 600 nM. The EC50 in assay [3] (setting [5]) worked out at 2000 nM.
For `COc1cc(CNc2ccc(C(=O)Nc3ccccc3N)cc2)cc(OC)c1` [Cpd 393, N-(2-Amino-phenyl)-4-(3,5-dimethoxy-benzylamino)-benzamide], in that order: 4000 nM, 600 nM and 1000 nM.
As to `Nc1ccccc1NC(=O)c1ccc(-c2ncc[nH]2)cc1` [Cpd 249], the IC50 in assay [1] (setting [4]) was determined as 4000 nM; in assay [2] (HCT-116, 72 h, Table 5F), 1000 nM. The EC50 in assay [3] (setting [5]) worked out at 2000 nM.
With `COc1ccc(CCNc2ccc(/C=C/C(=O)Nc3ccccc3N)cn2)cc1` [Cpd 95, N-(2-aminophenyl)-3-{6-[2-(4-methoxy-phenyl)-ethylamino]-pyridin-3-yl}-acrylamide], the IC50 in assay [1] (Table 5c, read-out: Human HDAC-1 IC50) stood at 3000 nM; in assay [2] (HCT-116, 72 h, Table 5c), 2000 nM. Also, the EC50 in assay [3] (T-24, Table 5c, read-out: H4Ac (T24) EC50) came to 10000 nM.
In the case of `Nc1ccccc1NC(=O)c1ccc(CSc2nc3ccc(NCc4cccnc4)cc3s2)cc1` [Cpd 325, N-(2-Amino-phenyl)-4-{6-[(pyridin-3-ylmethyl)-amino]-benzothiazol-2-ylsulfanylmethyl}-benzamide], the IC50 stood at 300 nM in assay [1] (setting [4]) and 1000 nM in assay [2] (HCT-116, 72 h, Table 5F). Further, the EC50 in assay [3] (setting [5]) was found to be 2000 nM.
